Measurements taken from US12606529B2, “Sulfur and amide tropolone inhibitors of nucleotidyl transferases and uses therefor” (Saint Louis University, priority 2019, dated 2026).
Converted amounts (≈) assume the structure as drawn. Like-named read-outs stand apart in the source and are kept apart here.

Experiments:
HBV replication = HBV replication inhibition in HepDES19 cells (strand-preferential qPCR); conditions: for EC50: Hepatitis B virus; for SI (CC50/EC50): cytotoxicity CC50 over HBV replication EC50
Protocol: Cells used for toxicity and HBV studies.
HBV replication inhibition studies. HepDES19 cells were seeded in 96-well plates at 4×10^4 cells per well in the absence of tetracycline. Test compounds in a final DMSO concentration of 1% were applied to cells 48 hours after induction of HBV replication and cells were incubated with compounds for 72 hours. Cells were washed in 200 μL of phosphate buffered saline (PBS) and lysed in 150 μL of core lysis buffer (10 mM Tris pH 7.4, 1% Tween20, 150 mM NaCl). Cells were incubated at room temperate on an orbital shaker at 350 rpm for 40 minutes. Cell lysate was transferred to a 96 well polymerase chain reaction (PCR) plate and centrifuged at 3300×g for 5 minutes. The supernatant (50 μL) from the cell lysate was transferred to a 96-well PCR plate and mixed with 20 units of micrococcal nuclease and 100 μM CaCl2. The lysate was incubated for 1 hour at 37° C., and then the nuclease was inactivated at 70° C. for ten minutes. Qiagen protease (0.005 Anson units) was added to the lysate and the mixture was incubated overnight. Qiagen protease was then inactivated at 95° C. for ten minutes.
The crude lysate was used as the template for strand-preferential quantitative polymerase chain reaction (q-PCR) analysis. Quantitative PCR was performed with 40 cycles of 95° C. for 15 s and 60° C. for 1 minute employing the Kappa Probe Force universal PCR master mix.

human RNaseH1 = target: T1, human RNaseH1 (Homo sapiens, UniProt O60930); assay: Biochemical inhibition of human RNaseH1 activity; conditions: for SIApparent (huRH1 IC50/EC50): huRH1 IC50 over HBV replication EC50
T1 sequence (O60930 1-286): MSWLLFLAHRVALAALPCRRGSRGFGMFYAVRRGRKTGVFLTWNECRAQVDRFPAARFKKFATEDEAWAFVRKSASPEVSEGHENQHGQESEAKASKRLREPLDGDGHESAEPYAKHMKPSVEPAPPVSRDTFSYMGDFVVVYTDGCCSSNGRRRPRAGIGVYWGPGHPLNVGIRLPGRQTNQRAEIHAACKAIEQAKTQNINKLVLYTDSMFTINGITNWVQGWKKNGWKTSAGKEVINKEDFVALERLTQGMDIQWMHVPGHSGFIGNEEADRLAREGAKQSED
How it was run: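 Human enzyme (0.3 μg) with 100 nM RNA:DNA molecular-beacon substrate, 50 mM HEPES pH 8.0, 100 mM NaCl, 2 mM TCEP, compounds 0 to 500 μM, 5% DMSO; started with 5 mM MgCl2, fluorescence read at 37° C. HBV enzyme (C-terminally truncated MBP-HRHgtCΔ5) run in FRET format, monitored 90 min at 37° C., initial rates calculated.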

HSV-1 = assay: Anti-HSV-1 replication assay (Vero cells, plaque titer); type: cell-based, herpes simplex virus 1; conditions: for log reduction at 1 µM / log reduction at 5 µM / log reduction at 0.33 µM: Human alphaherpesvirus 1, Vero, values separated by / are repeats; for log reduction at 1 µM: compound at 1 μM, read-out: HSV-1 suppression 1 μM; for log reduction at 5 µM: compound at 5 μM, read-out: HSV-1 suppression 5 μM; for log reduction at 0.33 µM: compound at 0.33 μM, read-out: HSV-1 suppression 0.33 μM
[1] = system: C. neoformans var. grubii, KN99; assay: C. neoformans growth inhibition assay (limiting dilution); type: cell-based, Cryptococcus neoformans; conditions: Cryptococcus neoformans
How it was run: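 Growth read as OD650 after 48 h unshaken culture at 35° C, resuspending cells before reading; inoculum OD650 0.001 in pH 7.0 MOPS-buffered YNB, 0.2% dextrose, 1% DMSO. MIC defined at 80% growth inhibition versus vehicle, values averaged from two or more independent triplicate runs.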

in vitro = conditions: human, HepDES19 cells, MTT
Protocol: Cells used for toxicity and HBV studies. […] Cells were maintained in Dulbecco's modified Eagle's medium (DMEM)/F12 media supplemented with 10% fetal bovine serum (FBS) and 1% penicillin/streptomycin (P/S) with 1 μg/mL tetracycline. Synchronized expression of HBV pgRNA was induced by removing tetracycline from the culture medium.
Cytotoxicity Assays. Qualitative assessments of cytotoxicity were done visually by inspecting the cells in the primary screening assays. […] The next day the compounds were added at 0.78 to 100 μM in a final concentration of 1% (v/v) DMSO, and the cells were incubated for 24 hours under conditions identical to those employed for the viral replication inhibition assays. Mitochondrial toxicity was measured by incubating the cells with 0.25 mg/mL thiazolyl blue tetrazolium bromide (MTT, SigmaAldrich Chemical Co.), the cultures were incubated for 60 mM, metabolites were solubilized in acidic isopropanol, and absorbance was read at 570 nm. CC50 values were calculated by non-linear curve fitting using GraphPad Prism using the three-parameter variable-response log(inhibitor)-versus-response algorithm with the bottom value set to zero.

HSV-2 = assay: Anti-HSV-2 replication assay (Vero cells, plaque titer); type: cell-based, herpes simplex virus 2; conditions: Table 3 sulfur compounds; compound at 5 μM
Protocol: HSV strains and cells used for HSV studies. […] HSV-1 and HSV-2 are de-identified clinical isolates from the Saint Louis University Hospital. Stocks were prepared after a single passage in cell culture and were titered by standard plaque assay (Knipe and Spang, 1982). Wild-type HSV-2 was laboratory strain 333. The TK-deficient mutant of HSV-2 strain 333, ΔTK−, contains a 180-bp KpnI-KpnI deletion in the UL23 open reading frame that abrogates TK activity (McDermott, et al, 1984). ΔTK− was the generous gift of Jim Smiley. Virus stocks were grown and titered on Vero cells (Morrison and Knipe, 1996).
Anti-HSV-1 and —HSV-2 replication assay. Compounds to be screened were diluted in PBS supplemented to contain 2% newborn calf serum and 1% glutamine and added in 100 μL volume to confluent cell monolayers in 24-well cluster plates Immediately thereafter HSV-1 and HSV-2, diluted in the supplemented PBS medium, were added to the wells in 50 μl volume such that the final concentration of compound was 50 μM and 5 μM and the multiplicity of infection was 0.1. The plates were incubated at 37° C. for 1 hour and then virus-containing inoculum was removed and the wells were washed once in PBS. Compounds, diluted to 50 μM and 5 μM in DMEM supplemented to contain 2% newborn calf serum and 1% each penicillin/streptomycin, were added at 0.5 mL/well. Plates were incubated at 37° C. an additional 23 hr, and then the plates were visually inspected through a phase contrast microscope for cytopathic effect, and for toxic effect. […] The entire contents of each well were collected by scraping. Samples were frozen at −80° C., and then subsequently thawed, sonicated, and infectious virus titer was determined by standard plaque assay on Vero cell monolayers. Because the compounds were dissolved at 10 mM in 100% DMSO, equivalent dilutions of DMSO were added to additional wells as a control for effects of the diluent. Each experiment was repeated once.

[2] = HepDES19, read-out: HBV EC50, Table 3 sulfur compounds, HBV replication, HepDES19 cells
[3] = Table 3 sulfur compounds, read-out: Hu RNaseH IC50
[4] = 48 h, Table 3 sulfur compounds, 48 h, 35° C., read-out: C. neoformans MIC80
[5] = HepDES19, 72 h, Table 2 amides, HBV replication, HepDES19 cells, plus-polarity DNA, 72 h
[6] = Table 2 amides, read-out: HuRH1 IC50
[7] = 48 h, Table 2 amides, 48 h, 35° C., tested 0.19 to 50 μM, read-out: C. neoformans MIC80

Structure (SMILES)	EC50 (HBV replication; [2])	IC50 (human RNaseH1; [3])	log reduction at 1 µM (HSV-1; Table 3 sulfur compounds)	log reduction at 5 µM (HSV-1; Table 3 sulfur compounds)	MIC80 [1, 4]	CC50 at 24 h (in vitro; CC50, Table 3 sulfur compounds)	EC50 (HBV replication; [5])	IC50 (human RNaseH1; [6])	log reduction at 5 µM (HSV-1; Table 2 amides)	MIC80 [1, 7]	CC50 at 24 h (in vitro; CC50 (μM), Table 2 amides)	other results
O=c1c(O)cccc(Sc2ccccc2)c1O [compound 691]	43.6 µM	31.9 µM	0.72	5.69	1 µM (≈ 0.246 µg/mL)	19.5 µM						Reduction of HSV-1 titers / suppression of HSV-1 replication at 5 μM (HSV-1; 5 μM, plaque forming units (PFU)/ml): > 3 log10
CCCCSc1ccc(SCCCC)c(O)c(=O)c1O [compound 694]	12.6 µM	127 µM	4.85	5.86	2 µM (≈ 0.629 µg/mL)	1.8 µM						Therapeutic index (CC50/EC50) for HBV (TI, SI) (HBV replication): 0.14
O=c1c(O)cccc(S(=O)(=O)c2cccc3ccccc23)c1O [compound 698]	6.18 µM	234 µM	-0.35	4.85	49 µM (≈ 16.1 µg/mL)	14.8 µM						log reduction at 0.33 µM (HSV-1; Table 3 sulfur compounds): -0.31
O=c1c(O)cccc(S)c1O [compound 701]	7.6 µM	46 µM		0.94	5 µM (≈ 0.851 µg/mL)	63.9 µM						
O=c1c(O)c(SCc2ccccc2)ccc(SCc2ccccc2)c1O [compound 703]	10.6 µM	49.6 µM	4.56	5.88	6.75 µM (≈ 2.58 µg/mL)	8.2 µM						
O=c1c(O)cccc(SCCc2ccccc2)c1O [compound 704]	52 µM	24.7 µM	0.06	5.72	1.4 µM (≈ 0.384 µg/mL)	21.6 µM						EC50 (HBV replication; HepDES19, read-out: EC50 against HBV replication): 52 µM
O=c1c(O)cccc(S(=O)(=O)Cc2ccccc2)c1O [compound 705]	2.76 µM	135 µM	0.19	3.55	50 µM (≈ 14.6 µg/mL)	8.4 µM						
Cc1cc(O)c(=O)c(O)cc1C(=O)Nc1ccc(F)nc1 [compound 707]							0.54 µM	148 ± 22.3 µM	-0.18	36 µM (≈ 10.4 µg/mL)	19.4 ± 8.4 µM	SI (CC50/EC50) (HBV replication; Table 2 amides): 36.2; SIApparent (huRH1 IC50/EC50) (human RNaseH1; Table 2 amides): 277
Cc1cc(O)c(=O)c(O)cc1C(=O)Nc1ccc(F)cc1F [compound 711]							0.75 ± 0.3 µM	184 µM	0.32	4.5 µM (≈ 1.38 µg/mL)	4.6 ± 0.8 µM	EC50 against HBV replication (HBV replication): sub-micromolar; SI (CC50/EC50) (HBV replication; Table 2 amides): 10.2; SIApparent (huRH1 IC50/EC50) (human RNaseH1; Table 2 amides): 247
Cc1cc(O)c(=O)c(O)cc1C(=O)N1CCSC1 [compound 712]							0.77 ± 0.5 µM	116 ± 67.6 µM	0.36	18 µM (≈ 4.81 µg/mL)	6.4 ± 0.8 µM	
Cc1ccc(Sc2cccc(O)c(=O)c2O)cc1 [compound 838]	17 µM	100 µM	0.05	5.33	1 µM (≈ 0.26 µg/mL)	18.6 µM						HSV-2 suppression 5 μM (HSV-2): 5.09 log10
O=c1c(O)cccc(Sc2cccc3ccccc23)c1O [compound 839]	50 µM	201 µM	-0.1	3.21	17 µM (≈ 5.04 µg/mL)	35.1 µM						HSV-2 suppression 5 μM (HSV-2): 4.2 log10
CCCCCCSc1cccc(O)c(=O)c1O [compound 840]	50 µM	72.8 µM	1.52	3.69	1 µM (≈ 0.254 µg/mL)	21.5 µM						log reduction at 0.33 µM (HSV-1; Table 3 sulfur compounds): 0.271; HSV-2 suppression 5 μM (HSV-2): 5.59 log10; MIC80 ([1]; read-out: MIC80 against C. neoformans): ≤ 1 µM
Cc1cc(O)c(=O)c(O)cc1C(=O)N1CCN(C2CC2)CC1 [compound 871]							1.15 ± 0.4 µM	88.2 ± 43.3 µM	-0.0192	50 µM (≈ 15.2 µg/mL)	36.6 ± 3.6 µM	log reduction at 1 µM (HSV-1; Table 2 amides): -0.1
Cc1cc(O)c(=O)c(O)cc1C(=O)N1CCN(C(=O)C2COc3ccccc3O2)CC1 (stereo not shown) [compound 876]							0.7 ± 0.4 µM	39.2 ± 40.6 µM	0.273	9 µM (≈ 3.84 µg/mL)	9.2 ± 3.2 µM	log reduction at 1 µM (HSV-1; Table 2 amides): -0.0739
